Converted amounts (≈) assume the structure as drawn. Read-outs that look alike come from different tables or passages of the source.
How the values were obtained:
[1] = Solubility in oil solvent (amount of compound dissolved per ml of solvent); assay type: physicochemical; conditions: for solubility at 15 min: oil or lipid, thermodynamic from solid, dissolved by heating in waterbath of 50° C. and Vortex shaking 15 minutes
Procedure: About 20–30 mgs of compound were powdered and then dissolved in as little solvent as necessary to dissolve all the visible particles. Dissolution was accomplished by heating in a waterbath of 50° C. and shaking on a Vortex™ shaker for 15 minutes. The solubility was calculated by determining the amount of compound (in mg) dissolved per ml of solvent.

rats = conditions: anabolic and antigonadotropic effects; cited from earlier work
monkeys = conditions: anabolic and antigonadotropic effects; cited from earlier work
[2] = arachis oil, read-out: solubility arachis oil
[3] = oleic acid, read-out: solubility oleic acid

Compound	solubility at 15 min [1, 2] [mg/mL]	solubility at 15 min [1, 3] [mg/mL]	androgenic potency relative to testosterone (rats)	androgenic potency relative to testosterone (monkeys)	solubility in arachis oil compared with the other androgens ([1]; arachis oil, comparison in words)	solubility in oleic acid compared with the known androgens ([1]; oleic acid, comparison in words)
C[C@@H]1CC2=CC(=O)CC[C@@H]2[C@H]2CC[C@]3(C)[C@@H](O)CC[C@H]3[C@@H]21 [MENT, (7α,17β)-17-hydroxy-7-methylestr-4-en-3-one]	≤ 0.1	~15 (≈ 52 mM)	ten times more potent than testosterone	ten times more potent than testosterone	–	–
C[C@]12CC[C@H]3[C@@H](CCC4=CC(=O)CC[C@@]43C)[C@@H]1CC[C@@H]2O [testosterone]	< 0.1	~25 (≈ 86.7 mM)	–	–	–	–
CCCCCCCCCCC(=O)O[C@H]1CC[C@H]2[C@@H]3CCC4=CC(=O)CC[C@]4(C)[C@H]3CC[C@]12C [testosterone undecanoate, (17β)-17-[(1-Oxoundecyl)oxy]androst-4-en-3-one]	~45 (≈ 98.5 mM)	200 to 250 (≈ 438 to 547 mM)	–	–	–	–
CCCCCCCCCCC(=O)O[C@H]1CC[C@H]2[C@H]3[C@H](CC[C@]12C)[C@H]1CCC(=O)C=C1C[C@H]3C [MENT undecanoate, (7α,17β)-7-methyl-17-[(1-oxoundecyl)oxy]estr-4-en-3-one]	> 200	≥ 500	–	–	much better than that of any of the other androgens	better than expected

Reference: patent US6989378B2, “Testosterone derivative” (Akzo Nobel N.V., priority 1998, dated 2006)
